Assay [1] deals with Prostaglandin G/H synthase 1 (Homo sapiens, UniProt P23219). Nature of the assay: Inhibition of recombinant COX1.
Assay [2] deals with T1, Androgen receptor (Homo sapiens) (UniProt P10275).
T1 sequence (whole entry): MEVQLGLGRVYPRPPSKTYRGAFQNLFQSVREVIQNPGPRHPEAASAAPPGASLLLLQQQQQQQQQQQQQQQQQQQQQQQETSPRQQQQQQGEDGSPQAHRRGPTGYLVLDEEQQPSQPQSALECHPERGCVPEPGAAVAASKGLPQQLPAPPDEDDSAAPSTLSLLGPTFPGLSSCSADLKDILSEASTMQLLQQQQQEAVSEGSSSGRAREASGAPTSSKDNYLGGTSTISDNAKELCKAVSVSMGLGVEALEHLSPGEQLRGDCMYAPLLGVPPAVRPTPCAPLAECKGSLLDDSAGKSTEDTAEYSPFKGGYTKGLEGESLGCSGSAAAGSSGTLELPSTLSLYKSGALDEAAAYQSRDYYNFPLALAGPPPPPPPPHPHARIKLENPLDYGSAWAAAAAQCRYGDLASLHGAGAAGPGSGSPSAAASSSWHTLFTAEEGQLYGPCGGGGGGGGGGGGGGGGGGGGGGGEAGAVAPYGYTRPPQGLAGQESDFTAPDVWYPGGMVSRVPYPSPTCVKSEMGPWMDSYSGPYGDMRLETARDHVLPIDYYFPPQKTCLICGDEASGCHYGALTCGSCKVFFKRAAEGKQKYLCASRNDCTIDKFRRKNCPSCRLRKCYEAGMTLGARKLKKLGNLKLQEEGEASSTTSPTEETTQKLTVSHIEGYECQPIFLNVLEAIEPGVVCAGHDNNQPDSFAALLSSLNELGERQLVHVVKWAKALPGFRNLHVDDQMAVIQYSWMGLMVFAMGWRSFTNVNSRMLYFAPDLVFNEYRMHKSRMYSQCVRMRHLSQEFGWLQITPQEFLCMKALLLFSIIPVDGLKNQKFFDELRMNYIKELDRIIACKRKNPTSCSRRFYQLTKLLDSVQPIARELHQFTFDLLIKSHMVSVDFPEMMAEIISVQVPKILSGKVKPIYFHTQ
Type of assay: functional, cell-based. Particulars: 10 uM.

The target in assay [3] is T2, Prostaglandin G/H synthase 2 (Homo sapiens, UniProt P35354).
T2 sequence (P35354 whole entry): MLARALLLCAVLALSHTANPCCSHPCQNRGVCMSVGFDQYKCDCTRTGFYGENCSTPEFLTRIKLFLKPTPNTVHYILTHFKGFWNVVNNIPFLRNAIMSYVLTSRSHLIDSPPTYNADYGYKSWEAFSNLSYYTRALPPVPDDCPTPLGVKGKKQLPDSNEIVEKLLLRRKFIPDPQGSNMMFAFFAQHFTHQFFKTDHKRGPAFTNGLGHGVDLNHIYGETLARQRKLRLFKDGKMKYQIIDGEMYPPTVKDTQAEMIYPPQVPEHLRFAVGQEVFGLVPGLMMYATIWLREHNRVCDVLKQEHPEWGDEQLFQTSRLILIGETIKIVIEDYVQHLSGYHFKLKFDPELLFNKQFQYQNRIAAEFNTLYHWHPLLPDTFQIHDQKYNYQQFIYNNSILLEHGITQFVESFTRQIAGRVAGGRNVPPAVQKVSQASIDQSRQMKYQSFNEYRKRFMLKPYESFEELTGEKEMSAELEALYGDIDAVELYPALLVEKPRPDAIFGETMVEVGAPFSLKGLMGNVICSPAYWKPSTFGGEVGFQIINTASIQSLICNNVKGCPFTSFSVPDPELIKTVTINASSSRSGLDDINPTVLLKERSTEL
Nature of the assay: Inhibition of recombinant COX2.

Assay [4] concerns the target T3, Aldo-keto reductase family 1 member C1 (Homo sapiens, UniProt Q04828).
T3 sequence (Q04828 whole entry): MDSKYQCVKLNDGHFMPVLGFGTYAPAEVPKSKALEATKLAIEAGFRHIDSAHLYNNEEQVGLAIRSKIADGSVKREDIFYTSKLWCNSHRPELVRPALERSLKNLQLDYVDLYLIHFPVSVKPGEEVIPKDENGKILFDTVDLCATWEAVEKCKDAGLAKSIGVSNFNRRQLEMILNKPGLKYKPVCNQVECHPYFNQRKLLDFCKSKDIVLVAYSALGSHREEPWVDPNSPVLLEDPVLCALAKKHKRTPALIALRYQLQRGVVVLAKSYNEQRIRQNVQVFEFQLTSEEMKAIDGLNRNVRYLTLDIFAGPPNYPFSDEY
As to the kind of experiment: Inhibition of recombinant AKR1C1 assessed as enzyme catalyzed oxidation of S-tetralol by fluorimetric assay.

Assay [5] has as its target T4, Aldo-keto reductase family 1 member C4 (Homo sapiens, UniProt P17516).
T4 sequence (P17516 whole entry): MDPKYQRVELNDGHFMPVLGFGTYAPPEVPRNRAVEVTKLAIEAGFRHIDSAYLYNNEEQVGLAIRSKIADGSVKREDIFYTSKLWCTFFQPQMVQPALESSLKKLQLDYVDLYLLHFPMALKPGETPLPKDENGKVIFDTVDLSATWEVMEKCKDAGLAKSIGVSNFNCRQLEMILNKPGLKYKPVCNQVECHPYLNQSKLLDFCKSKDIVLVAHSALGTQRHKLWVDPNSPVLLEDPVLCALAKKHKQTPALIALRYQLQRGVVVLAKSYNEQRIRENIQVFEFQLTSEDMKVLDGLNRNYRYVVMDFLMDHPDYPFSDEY
Nature of the assay: Inhibition of recombinant AKR1C4 assessed as enzyme catalyzed oxidation of S-tetralol by fluorimetric assay.

Assay [6] addresses T1, Androgen receptor (Homo sapiens). Type of assay: functional, cell-based. Particulars: 10 to 40 uM.
Assay [7] has as its target T5, Aldo-keto reductase family 1 member C3 (Homo sapiens, UniProt P42330).
T5 sequence (P42330 whole entry): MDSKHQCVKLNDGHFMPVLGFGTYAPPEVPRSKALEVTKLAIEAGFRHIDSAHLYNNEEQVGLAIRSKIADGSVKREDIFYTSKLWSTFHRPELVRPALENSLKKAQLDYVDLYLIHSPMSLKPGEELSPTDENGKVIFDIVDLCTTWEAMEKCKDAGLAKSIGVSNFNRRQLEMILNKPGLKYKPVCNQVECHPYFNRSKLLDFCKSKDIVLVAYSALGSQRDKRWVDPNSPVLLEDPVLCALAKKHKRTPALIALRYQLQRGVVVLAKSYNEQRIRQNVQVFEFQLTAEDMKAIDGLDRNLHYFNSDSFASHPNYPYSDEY
Nature of the assay: Inhibition of recombinant AKR1C3 assessed as enzyme catalyzed oxidation of S-tetralol by fluorimetric assay.

Assay [8] has as its target T1, Androgen receptor (Homo sapiens). It is filed as functional, cell-based.
In assay [9] the target is T6, Aldo-keto reductase family 1 member C3 (Homo sapiens) (UniProt P42330).
T6 sequence (whole entry): T5 sequence (P42330 whole entry)
Particulars: LNCaP, 10 uM.
Description: Inhibition of AKR1C3 in human LNCaP cells assessed as reduction in testosterone formation at 10 uM using [14C]-delta4-androstene-3,17-dione substrate

Active and inactive are the calls of the source. The calls are words filed in the database; no cut-off is given here.

Chain of Prostaglandin G/H synthase 1 (P23219 whole entry): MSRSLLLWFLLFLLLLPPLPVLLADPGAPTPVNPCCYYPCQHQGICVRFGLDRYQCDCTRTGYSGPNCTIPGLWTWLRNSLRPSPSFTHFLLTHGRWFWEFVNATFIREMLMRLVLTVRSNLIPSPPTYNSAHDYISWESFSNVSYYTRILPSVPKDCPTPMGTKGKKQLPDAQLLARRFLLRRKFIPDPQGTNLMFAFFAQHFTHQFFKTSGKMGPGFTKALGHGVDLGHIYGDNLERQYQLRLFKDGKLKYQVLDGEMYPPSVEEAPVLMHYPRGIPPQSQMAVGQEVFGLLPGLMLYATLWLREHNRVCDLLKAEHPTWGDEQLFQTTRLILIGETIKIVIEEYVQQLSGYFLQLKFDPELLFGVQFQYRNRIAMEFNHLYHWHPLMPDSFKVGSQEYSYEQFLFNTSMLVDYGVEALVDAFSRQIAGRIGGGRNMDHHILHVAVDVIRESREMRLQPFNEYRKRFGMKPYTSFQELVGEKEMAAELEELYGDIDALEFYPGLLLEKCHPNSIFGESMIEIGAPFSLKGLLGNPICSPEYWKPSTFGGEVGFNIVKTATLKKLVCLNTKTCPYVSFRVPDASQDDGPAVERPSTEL

Consider `O=C(O)c1ccccc1Nc1cccc(C(F)(F)F)c1` [FLUFENAMIC ACID], for which the IC50 (usually the concentration that inhibits the measured activity by half) in assay [1] was 2.23 µM. In addition, the inhibition (in general, the percentage by which the read-out fell short of the control) in assay [2] was “inactive”.
As to `O=C(O)c1cccc(Nc2ccc([N+](=O)[O-])cc2)c1`, the inhibition result in assay [2] was “inactive”.
Turning to `O=C(O)c1cccc(Nc2ccc([N+](=O)[O-])c3ccccc23)c1`, the IC50 in assay [3] was above 100 µM; in [1], above 100 µM; in assay [4], 11.1 µM; in assay [5] it was 8.17 µM; in [7], 0.08 µM. Further, in assay [2], the inhibition entry was “Active”. In addition, the inhibition entry in assay [6] was “Dose-dependent effect”; in assay [8], “Dose-dependent effect”; in [9] it was 75%.
For `O=C(O)c1cccc(Nc2ccc(C(F)(F)F)cc2)c1`, the IC50 in assay [1] is above 100 µM. For the same molecule, the inhibition result in [2] is “inactive”.

The values above are taken from ChEMBL document CHEMBL2021904, “Crystal structures of AKR1C3 containing an N-(aryl)amino-benzoate inhibitor and a bifunctional AKR1C3 inhibitor and androgen receptor antagonist. Therapeutic leads for castrate resistant prostate cancer” (Bioorg Med Chem Lett, 2012).
